Test [1] has as its target T1, full length recombinant Pim-2 protein (Homo sapiens, UniProt Q9P1W9).
T1 construct: by full length recombinant Pim-1, Pim-2, or Pim-3 protein; hexahistidine tag followed by a thrombin cleavage site (N); made in house; host or cells: Sf9 (baculovirus) or E. coli (pET28)
Briefly: Pim-2 enzyme assay (HTRF, phosphorylation of biotinylated-BAD (S112) peptide). The class given is biochemical. Particulars: read-out: Pim2_IC50. In a few lines:
(§1)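 HTRF read-out: Eu-labelled anti-phospho-BAD (S112) antibody plus streptavidin-APC detect phosphorylated biotin-BAD peptide. Enzymes were full-length recombinant human Pim-1 and Pim-2; buffer 60 mM Hepes pH 7.0, 0.05% BSA, 2 mM DTT; reactions quenched with 3 mM EDTA. Percent-of-control data fitted to a 4-parameter logistic for IC50.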
(In TR-FRET formats the signal depends on donor and acceptor labels being close together.)

The test system of a further test is KMS-Cell. As to the kind of experiment: KMS cell IC50 (Table 4). In kind it is cell-based. Particulars: KMS cells.
Test [2] addresses T2, Pim-2 stably transfected into the U2OS human osteogenic sarcoma line (Homo sapiens, UniProt Q9P1W9).
T2 construct: expressed in transfected cells; host or cells: U2OS human osteogenic sarcoma line
As to the kind of experiment: Pim cell assay, phospho-BAD normalized against total BAD, U2OS stably transfected with Pim-2. Note: high dose 31.6 µM. The class given is cell-based. As to conditions: read-out: Pim2_Cell_IC50. In a few lines: (§2)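 Read-out is phospho-BAD relative to total BAD, by MSD electrochemiluminescence on lysates, expressed as % phosphoprotein = (2×phospho)/(phospho+total)×100. Engineered U2OS lines carrying stably transfected Pim-1 or Pim-2 received 10-point compound dilutions at 0.3% final DMSO after overnight culture at 37 °C; DMSO-only wells served as high control.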

For test [3], the target named is T3, full length recombinant Pim-1 protein (Homo sapiens, UniProt P11309).
T3 construct: by full length recombinant Pim-1, Pim-2, or Pim-3 protein; hexahistidine tag followed by a thrombin cleavage site (N); made in house; host or cells: Sf9 (baculovirus) or E. coli (pET28)
T3 sequence (P11309 whole entry): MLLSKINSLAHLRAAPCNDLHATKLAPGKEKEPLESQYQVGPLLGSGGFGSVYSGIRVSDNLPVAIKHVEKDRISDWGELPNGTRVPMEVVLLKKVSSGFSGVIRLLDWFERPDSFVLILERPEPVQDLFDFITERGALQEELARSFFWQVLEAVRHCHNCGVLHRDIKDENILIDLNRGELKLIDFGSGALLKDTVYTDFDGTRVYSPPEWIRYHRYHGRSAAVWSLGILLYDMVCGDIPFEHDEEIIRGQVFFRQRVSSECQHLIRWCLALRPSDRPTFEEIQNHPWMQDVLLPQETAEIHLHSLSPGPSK
Briefly: Pim-1 enzyme assay (HTRF, phosphorylation of biotinylated-BAD (S112) peptide). The class given is biochemical. Particulars: enzyme assay, Pim-1; read-out: Pim_1_IC50. In a few lines: as §1

Test [4] has as its target T4, full length recombinant Pim-3 protein (Homo sapiens, UniProt Q86V86).
T4 construct: by full length recombinant Pim-1, Pim-2, or Pim-3 protein; purchased Millipore (UK)
As to the kind of experiment: Pim-3 enzyme assay (HTRF, phosphorylation of biotinylated-BAD (S112) peptide). The class given is biochemical. Particulars: read-out: Pim3 IC50. In short, it runs like this: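 HTRF read-out, streptavidin-APC plus Eu-labelled anti-phospho-BAD (S112) antibody, measures BAD peptide phosphorylation by full-length recombinant Pim-3. Buffer: 60 mM Hepes pH 7.0, 2 mM DTT, 0.05% BSA; EDTA (3 mM) stop. Percent of control per well, IC50 by 4-parameter logistic fit.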

The target in test [5] is T5, Pim-1 stably transfected into the U2OS human osteogenic sarcoma line (Homo sapiens, UniProt P11309).
T5 construct: expressed in transfected cells; host or cells: U2OS human osteogenic sarcoma line
T5 sequence (P11309 whole entry): as above
Briefly: Pim cell assay, phospho-BAD normalized against total BAD, U2OS stably transfected with Pim-1. In kind it is cell-based. As to conditions: read-out: Pim1_Cell_IC50. In short, it runs like this:
as §2

Setting [6] is: U2OS cells stably transfected with Pim-2, phospho-BAD, high dose […].
The mark [7] stands for this setting: U2OS cells stably transfected with Pim-1, phospho-BAD, high dose […].

Where a name gives a salt, the structure may show the parent alone. Read-outs that look alike come from different tables or passages of the source.

T2 sequence (Q9P1W9 whole entry): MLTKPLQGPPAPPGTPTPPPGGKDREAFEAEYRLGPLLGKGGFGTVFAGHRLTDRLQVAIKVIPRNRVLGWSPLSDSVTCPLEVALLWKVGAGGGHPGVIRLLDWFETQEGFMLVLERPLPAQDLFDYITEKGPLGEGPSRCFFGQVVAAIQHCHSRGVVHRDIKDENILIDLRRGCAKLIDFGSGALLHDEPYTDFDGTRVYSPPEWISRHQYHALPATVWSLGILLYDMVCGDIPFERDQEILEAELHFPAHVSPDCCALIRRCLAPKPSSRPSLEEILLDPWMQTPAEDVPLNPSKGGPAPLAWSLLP
T1 sequence (Q9P1W9 whole entry): as above

For the compound `O=c1cc(-c2n[nH]c3ccc(-c4nccs4)cc23)nc(O[C@@H]2CNCC[C@H]2F)[nH]1` (racemic) [Example 289, 2-((trans-4-fluoropiperidin-3-yl)oxy)-6-(5-(thiazol-2-yl)-1H-indazol-3-yl)pyrimidin-4(3H)-one trifluoroacetate], the figures for the IC50 (in test [1]; in the test on KMS-Cell) were 1 nM and 3540 nM, respectively.
For the compound `Fc1cccc(F)c1-c1ccc2[nH]nc(-c3ccnc(O[C@@H]4CCCNC4)n3)c2c1` [Example 190, 5-(2,6-difluorophenyl)-3-(2-((3R)-3-piperidinyloxy)-4-pyrimidinyl)-1H-indazole], the IC50 stood at 18800 nM in test [2] (setting [6]); 24 nM in test [3]; 223 nM in test [1] (enzyme assay, Pim-2); 36 nM in test [4]; 1220 nM in test [5] (setting [7]).
The matching figures for `NC1CCN(c2nccc(-c3n[nH]c4ccc(-c5c(F)cccc5F)cc34)n2)CC1` [Example 194, 1-(4-(5-(2,6-difluorophenyl)-1H-indazol-3-yl)-2-pyrimidinyl)-4-piperidinamine]: above 31600 nM, 2 nM, 52 nM, 3 nM and 561 nM.
For `C[C@H]1CCNC[C@@H]1Oc1cncc(-c2n[nH]c3ccc(-c4c(F)cccc4F)cc23)n1` [Example 195, 5-(2,6-difluorophenyl)-3-(6-(((3R,4S)-4-methyl-3-piperidinyl)oxy)-2-pyrazinyl)-1H-indazole] the same measures were 7580 nM, 4 nM, 15 nM, 7 nM and 211 nM.
Take `C[C@H]1CCNC[C@@H]1Oc1cncc(-c2n[nH]c3ccc(-c4c(F)cccc4F)cc23)n1` [Example 198, 5-(2,6-difluorophenyl)-3-(6-(((3R,4S)-4-methyl-3-piperidinyl)oxy)-2-pyrazinyl)-1H-indazole]: the IC50 in test [2] (setting [6]) worked out at 5090 nM; in test [3], 4 nM; in test [1] (enzyme assay, Pim-2), 13 nM; in test [4], 5 nM; in test [5] (setting [7]) it was 146 nM.
The matching figures for `C[C@H]1CCNC[C@H]1Oc1cncc(-c2n[nH]c3ccc(-c4c(F)cccc4F)cc23)n1` [Example 199, 5-(2,6-difluorophenyl)-3-(6-(((3S,4S)-4-methyl-3-piperidinyl)oxy)-2-pyrazinyl)-1H-indazole]: 3410 nM, 5 nM, 16 nM, 4 nM and 400 nM.
On to `N[C@H]1CCCN(c2cncc(-c3c[nH]c4ccc(-c5c(F)cccc5F)cc34)n2)C1` [Example 201, (3S)-1-(6-(5-(2,6-difluorophenyl)-1H-indol-3-yl)-2-pyrazinyl)-3-piperidinamine], for which the IC50 in test [2] (setting [6]) was above 31600 nM; in test [3], 1 nM; in test [1] (enzyme assay, Pim-2), 66 nM; in test [4], 5 nM; in test [5] (setting [7]) it was 611 nM.
For `Fc1cccc(F)c1-c1ccc2[nH]cc(-c3cncc(NC4CCNCC4)n3)c2c1` [Example 205, 6-(5-(2,6-difluorophenyl)-1H-indol-3-yl)-N-4-piperidinyl-2-pyrazinamine] the same measures were 4330 nM, 4 nM, 29 nM, 4 nM and 273 nM.
The matching figures for `Fc1cccc(F)c1-c1ccc2[nH]cc(-c3cncc(OC4CCNCC4)n3)c2c1` [Example 206, 5-(2,6-difluorophenyl)-3-(6-(4-piperidinyloxy)-2-pyrazinyl)-1H-indole]: 20400 nM, 2 nM, 54 nM, 6 nM and 326 nM.
On to `Fc1cccc(F)c1-c1ccc2[nH]cc(-c3cncc(N[C@@H]4CCCNC4)n3)c2c1` [Example 207, 6-(5-(2,6-difluorophenyl)-1H-indol-3-yl)-N-((3R)-3-piperidinyl)-2-pyrazinamine], for which the IC50 in test [2] (setting [6]) was found to be 3030 nM; in test [3] it was 1 nM; in test [1] (enzyme assay, Pim-2), 11 nM; in test [4], 4 nM; in test [5] (setting [7]), 102 nM.
For `Fc1cccc(F)c1-c1ccc2[nH]cc(-c3cncc(N[C@@H]4CCNC4)n3)c2c1` [Example 208, 6-(5-(2,6-difluorophenyl)-1H-indol-3-yl)-N-((3R)-3-pyrrolidinyl)-2-pyrazinamine] the same measures were 4620 nM, 2 nM, 15 nM, 4 nM and 381 nM.
Regarding `Fc1cccc(F)c1-c1ccc2[nH]cc(-c3nccc(O[C@@H]4CCCNC4)n3)c2c1` [Example 209, 5-(2,6-difluorophenyl)-3-(4-((3R)-3-piperidinyloxy)-2-pyrimidinyl)-1H-indole], the IC50 was 30300 nM in test [2]; 36 nM in test [3]; 89 nM in test [1] (enzyme assay, Pim-2); 49 nM in test [4]; 1180 nM in test [5].
Turning to `Fc1cccc(F)c1-c1ccc2[nH]cc(-c3nccc(OC4CCNCC4)n3)c2c1` [Example 211, 5-(2,6-difluorophenyl)-3-(4-(4-piperidinyloxy)-2-pyrimidinyl)-1H-indole], the IC50 in test [2] was above 31600 nM; in test [3] it was 86 nM; in test [1] (enzyme assay, Pim-2), 445 nM; in test [4] it was 61 nM; in test [5], 3790 nM.
Consider `N[C@@H]1CCN(c2cncc(-c3c[nH]c4ccc(-c5c(F)cccc5F)cc34)n2)C1` [Example 212, (3R)-1-(6-(5-(2,6-difluorophenyl)-1H-indol-3-yl)-2-pyrazinyl)-3-pyrrolidinamine], for which the IC50 in test [2] (setting [6]) was above 31600 nM; in test [3] it was 15 nM; in test [1] (enzyme assay, Pim-2), 185 nM; in test [4], 18 nM; in test [5] (setting [7]), 997 nM.
With `CC(C)Oc1cncc(-c2ccc3[nH]cc(-c4cncc(O[C@@H]5CCCNC5)n4)c3c2)n1` [Example 213, 5-(6-(1-methylethoxy)-2-pyrazinyl)-3-(6-((3R)-3-piperidinyloxy)-2-pyrazinyl)-1H-indole], the IC50 is 18900 nM in test [2]; 22 nM in test [3]; 343 nM in test [1] (enzyme assay, Pim-2); 40 nM in test [4]; 1370 nM in test [5].
The matching figures for `CC(C)Oc1cncc(-c2ccc3[nH]cc(-c4ccc5cn[nH]c5c4)c3c2)n1` [Example 221, 6-(5-(6-(1-methylethoxy)-2-pyrazinyl)-1H-indol-3-yl)-1H-indazole]: above 31600 nM, 50 nM, 506 nM, 33 nM and 1920 nM.
The matching figures for `CC(C)Oc1cncc(-c2ccc3[nH]cc(-c4cncc(N5CCOCC5)n4)c3c2)n1` [Example 225, 5-(6-(1-methylethoxy)-2-pyrazinyl)-3-(6-(4-morpholinyl)-2-pyrazinyl)-1H-indole]: above 31600 nM, 77 nM, above 3000 nM, 138 nM and 1470 nM.
For `CC(C)Oc1cncc(-c2ccc3[nH]cc(-c4csc(-n5ccccc5=O)n4)c3c2)n1` [Example 227, 1-(4-(5-(6-(1-methylethoxy)-2-pyrazinyl)-1H-indol-3-yl)-1,3-thiazol-2-yl)-2(1H)-pyridinone] the same measures were above 15800 nM, 100 nM, above 3000 nM, 206 nM and above 15800 nM.
For the compound `CC(C)Oc1cncc(-c2ccc3[nH]cc(-c4csc(-n5ccnc5)n4)c3c2)n1` [Example 228, 3-(2-(1H-imidazol-1-yl)-1,3-thiazol-4-yl)-5-(6-(1-methylethoxy)-2-pyrazinyl)-1H-indole], the IC50 in test [2] was above 31600 nM; in test [3] it was 43 nM; in test [1] (enzyme assay, Pim-2), 1410 nM; in test [4], 42 nM; in test [5], 3420 nM.
Turning to `CC(C)Oc1cncc(-c2ccc3[nH]cc(-c4cncc(N(C)C)n4)c3c2)n1` [Example 230, N,N-dimethyl-6-(5-(6-(1-methylethoxy)-2-pyrazinyl)-1H-indol-3-yl)-2-pyrazinamine], the IC50 in test [2] was above 31600 nM; in test [3], 89 nM; in test [1] (enzyme assay, Pim-2), 2360 nM; in test [4] it was 50 nM; in test [5], 2830 nM.
In turn, `O=c1cc(-c2n[nH]c3ccc(-c4c(F)cccc4F)cc23)nc(OC2CNCCC2F)[nH]1` (centres unmarked) [Example 555] came in with an IC50 in the test with KMS-Cell of 307 nM.

Source of the values: patent publication US9090593B2, “Bicyclic compounds as Pim inhibitors” (AMGEN INC., priority 2010, dated 2015).
